Measured values as given in ChEMBL document CHEMBL1201862, “PubChem BioAssay data set” (2004).
Activity calls are given as the source filed them.

Columns and labels:
[1] = target: T1, Sentrin-specific protease 6 (Homo sapiens, UniProt Q9GZR1); format: functional;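 also: Luminescence-based dose-response confirmatory assay of SENP6 inhibition, following up an ultra-high-throughput screen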
T1 sequence (Q9GZR1 whole entry): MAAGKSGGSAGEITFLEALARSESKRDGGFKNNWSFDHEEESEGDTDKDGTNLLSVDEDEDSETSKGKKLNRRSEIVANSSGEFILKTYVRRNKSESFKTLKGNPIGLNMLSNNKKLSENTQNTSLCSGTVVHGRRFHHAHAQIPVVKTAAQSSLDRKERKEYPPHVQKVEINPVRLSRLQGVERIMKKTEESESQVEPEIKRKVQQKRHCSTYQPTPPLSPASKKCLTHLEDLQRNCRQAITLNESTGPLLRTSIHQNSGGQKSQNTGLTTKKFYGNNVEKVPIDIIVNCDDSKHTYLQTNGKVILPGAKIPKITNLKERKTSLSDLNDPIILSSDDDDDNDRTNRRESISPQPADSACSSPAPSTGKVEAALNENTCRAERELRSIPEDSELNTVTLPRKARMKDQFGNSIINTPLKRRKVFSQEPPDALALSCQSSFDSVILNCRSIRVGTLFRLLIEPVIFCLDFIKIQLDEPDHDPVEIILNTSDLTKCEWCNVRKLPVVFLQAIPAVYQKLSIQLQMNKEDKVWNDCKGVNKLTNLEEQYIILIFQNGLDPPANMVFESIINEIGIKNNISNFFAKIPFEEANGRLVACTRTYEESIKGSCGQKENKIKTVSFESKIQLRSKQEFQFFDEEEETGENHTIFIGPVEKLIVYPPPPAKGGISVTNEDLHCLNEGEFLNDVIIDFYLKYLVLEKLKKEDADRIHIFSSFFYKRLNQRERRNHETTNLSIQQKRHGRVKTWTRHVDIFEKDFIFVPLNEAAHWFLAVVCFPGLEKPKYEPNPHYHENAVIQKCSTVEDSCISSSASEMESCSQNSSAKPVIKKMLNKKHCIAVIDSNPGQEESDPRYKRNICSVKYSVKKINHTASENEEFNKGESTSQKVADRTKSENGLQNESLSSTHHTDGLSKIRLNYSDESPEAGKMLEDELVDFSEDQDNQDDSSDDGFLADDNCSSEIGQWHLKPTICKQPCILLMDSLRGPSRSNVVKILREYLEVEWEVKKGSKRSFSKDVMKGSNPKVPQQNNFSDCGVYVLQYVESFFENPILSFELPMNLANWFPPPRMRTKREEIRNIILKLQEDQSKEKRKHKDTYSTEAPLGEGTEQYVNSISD

[2] = target: T2, Caspase-3 (Homo sapiens, UniProt P42574); format: functional;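 also: Dose-response selectivity test against caspase-3 for candidate inhibitors of sentrin-specific proteases (SENPs)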
T2 sequence (P42574 whole entry): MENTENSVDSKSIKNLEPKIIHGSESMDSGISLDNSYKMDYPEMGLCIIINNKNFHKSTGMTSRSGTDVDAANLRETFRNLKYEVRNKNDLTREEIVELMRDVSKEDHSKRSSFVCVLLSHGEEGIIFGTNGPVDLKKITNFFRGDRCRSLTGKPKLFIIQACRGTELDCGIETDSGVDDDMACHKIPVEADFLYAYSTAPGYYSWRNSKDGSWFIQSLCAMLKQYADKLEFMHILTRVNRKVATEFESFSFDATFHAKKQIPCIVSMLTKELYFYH

[3] = target: T3, Sentrin-specific protease 8 (Homo sapiens, UniProt Q96LD8); format: functional;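 also: luminescence read-out of SENP8 inhibition, dose-response confirmation following an ultra-high-throughput screen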
T3 sequence (Q96LD8 whole entry): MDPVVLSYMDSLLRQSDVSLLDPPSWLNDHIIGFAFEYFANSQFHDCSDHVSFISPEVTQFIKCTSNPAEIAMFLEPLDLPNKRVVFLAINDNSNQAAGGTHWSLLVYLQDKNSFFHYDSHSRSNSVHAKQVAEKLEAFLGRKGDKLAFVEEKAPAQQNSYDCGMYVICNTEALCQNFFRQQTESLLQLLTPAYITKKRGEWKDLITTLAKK

[4] = target: T4, Sentrin-specific protease 7 (Homo sapiens, UniProt Q9BQF6); format: functional;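 also: Luminescence-based dose-response confirmation of ultra-high-throughput screening hits, measuring inhibition of SENP7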
T4 sequence (Q9BQF6 whole entry): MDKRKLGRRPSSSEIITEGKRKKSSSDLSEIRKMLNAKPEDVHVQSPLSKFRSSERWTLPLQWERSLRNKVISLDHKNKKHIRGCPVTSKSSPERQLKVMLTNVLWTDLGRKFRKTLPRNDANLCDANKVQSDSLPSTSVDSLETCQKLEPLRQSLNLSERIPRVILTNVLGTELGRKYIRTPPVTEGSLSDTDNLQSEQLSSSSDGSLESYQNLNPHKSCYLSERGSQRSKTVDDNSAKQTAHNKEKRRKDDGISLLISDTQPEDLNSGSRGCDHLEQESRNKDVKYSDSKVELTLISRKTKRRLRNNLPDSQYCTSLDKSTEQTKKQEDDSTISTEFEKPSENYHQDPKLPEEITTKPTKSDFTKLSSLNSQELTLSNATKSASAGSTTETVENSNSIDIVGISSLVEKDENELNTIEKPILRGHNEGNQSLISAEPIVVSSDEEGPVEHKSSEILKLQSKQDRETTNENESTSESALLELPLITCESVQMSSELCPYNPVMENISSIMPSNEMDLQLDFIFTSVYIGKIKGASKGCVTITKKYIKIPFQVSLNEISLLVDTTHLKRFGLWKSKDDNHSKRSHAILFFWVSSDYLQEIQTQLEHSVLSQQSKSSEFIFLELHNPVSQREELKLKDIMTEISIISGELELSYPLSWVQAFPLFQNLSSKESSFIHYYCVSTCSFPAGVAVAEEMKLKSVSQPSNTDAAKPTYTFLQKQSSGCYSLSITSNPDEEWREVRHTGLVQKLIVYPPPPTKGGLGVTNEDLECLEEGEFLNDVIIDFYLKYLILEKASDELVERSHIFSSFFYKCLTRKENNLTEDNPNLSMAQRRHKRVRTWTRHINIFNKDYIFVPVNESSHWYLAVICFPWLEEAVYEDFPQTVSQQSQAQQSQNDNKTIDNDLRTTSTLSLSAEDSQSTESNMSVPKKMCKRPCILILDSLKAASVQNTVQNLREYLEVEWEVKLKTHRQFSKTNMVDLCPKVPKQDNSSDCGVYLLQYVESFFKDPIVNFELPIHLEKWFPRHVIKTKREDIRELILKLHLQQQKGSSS

[5] = MIN6 cell viability loss – mouse insulinoma, cytotoxicity control, dose response (AID 2122); format: functional;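 also: confirmatory high-throughput counterscreen run to flag cytotoxic compounds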
[6] = system: INS1; test: INS-1E survival protection against cytokine death – cell-based, luminescence, retest, dose response (AID 449756); format: functional; conditions: Rattus norvegicus;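 also: cell death triggered by IL-1 beta plus TNF-alpha plus IFN-gamma mixture; protective hits raise ATP signal compared with cytokine alone wells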
[7] = decrease of insulin promoter-GFP reporter – imaging, high-content screening, mouse beta cells (AID 1628); format: functional; conditions: MIN6
[8] = target: T5, Lysine-specific demethylase 4C (Homo sapiens, UniProt Q9H3R0); test: inhibition of JMJD2C H3K9me3 demethylation – biochemical, DELFIA europium, cherry-picked samples, dose response (AID 488835); format: functional
T5 sequence (Q9H3R0 whole entry): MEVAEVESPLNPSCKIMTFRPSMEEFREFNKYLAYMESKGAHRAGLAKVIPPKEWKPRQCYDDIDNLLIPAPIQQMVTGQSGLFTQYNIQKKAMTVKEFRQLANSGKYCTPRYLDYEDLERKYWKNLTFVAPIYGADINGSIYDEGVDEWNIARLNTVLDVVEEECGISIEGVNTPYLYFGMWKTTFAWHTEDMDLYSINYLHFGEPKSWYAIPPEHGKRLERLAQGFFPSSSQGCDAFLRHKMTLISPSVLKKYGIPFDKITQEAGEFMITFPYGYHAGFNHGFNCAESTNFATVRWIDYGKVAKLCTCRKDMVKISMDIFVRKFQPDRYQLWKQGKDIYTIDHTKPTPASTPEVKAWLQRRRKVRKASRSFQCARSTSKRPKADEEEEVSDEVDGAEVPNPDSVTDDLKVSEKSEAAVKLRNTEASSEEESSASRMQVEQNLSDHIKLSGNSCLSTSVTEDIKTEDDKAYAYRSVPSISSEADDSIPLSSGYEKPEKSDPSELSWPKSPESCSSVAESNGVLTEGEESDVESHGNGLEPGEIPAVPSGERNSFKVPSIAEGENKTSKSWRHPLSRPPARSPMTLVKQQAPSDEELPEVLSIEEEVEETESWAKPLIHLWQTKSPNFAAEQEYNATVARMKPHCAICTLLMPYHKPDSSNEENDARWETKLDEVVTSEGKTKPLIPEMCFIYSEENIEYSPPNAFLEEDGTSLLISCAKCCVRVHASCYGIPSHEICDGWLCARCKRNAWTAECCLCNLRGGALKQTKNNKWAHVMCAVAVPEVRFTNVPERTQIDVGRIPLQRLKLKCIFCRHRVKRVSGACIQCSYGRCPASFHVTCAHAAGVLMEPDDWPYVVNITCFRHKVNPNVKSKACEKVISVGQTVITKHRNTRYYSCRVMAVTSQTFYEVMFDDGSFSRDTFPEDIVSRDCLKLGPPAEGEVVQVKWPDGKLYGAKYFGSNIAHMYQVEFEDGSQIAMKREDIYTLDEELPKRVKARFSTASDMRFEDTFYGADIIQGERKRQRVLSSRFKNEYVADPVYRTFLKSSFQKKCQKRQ

[9] = target: T6, Nuclear receptor subfamily 0 group B member 1 (Homo sapiens, UniProt P51843); test: Luminescence-based cell-based high throughput dose response assay for inhibitors of the orphan nuclear receptor subfamily 0, group B, member 1 (DAX1; NR0B1). [Related pubchem assays (depositor defined):AID504766, AID504790]; format: functional
T6 sequence (P51843 whole entry): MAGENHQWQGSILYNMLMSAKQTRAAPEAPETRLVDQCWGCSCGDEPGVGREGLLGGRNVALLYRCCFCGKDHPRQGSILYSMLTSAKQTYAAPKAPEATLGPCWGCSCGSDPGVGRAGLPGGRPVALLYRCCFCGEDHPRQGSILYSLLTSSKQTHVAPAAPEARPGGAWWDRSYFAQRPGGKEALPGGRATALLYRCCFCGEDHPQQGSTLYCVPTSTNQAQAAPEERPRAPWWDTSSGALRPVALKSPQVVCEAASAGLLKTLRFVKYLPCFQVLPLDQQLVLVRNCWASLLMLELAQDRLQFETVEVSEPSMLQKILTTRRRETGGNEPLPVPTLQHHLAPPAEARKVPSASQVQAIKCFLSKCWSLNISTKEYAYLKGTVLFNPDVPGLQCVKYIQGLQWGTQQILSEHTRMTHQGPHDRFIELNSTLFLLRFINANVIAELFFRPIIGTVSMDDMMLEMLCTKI

[10] = system: HEK293; test: cells; format: functional, cell-based; conditions: Homo sapiens
[11] = target: T7, CAAX prenyl protease 2 (Homo sapiens, UniProt Q9Y256); test: inhibition of Ras-converting CAAX protease Rce1 – biochemical, yeast membranes, quenched-peptide fluorescence, cherry-pick, dose response (AID 588849)
T7 sequence (Q9Y256 whole entry): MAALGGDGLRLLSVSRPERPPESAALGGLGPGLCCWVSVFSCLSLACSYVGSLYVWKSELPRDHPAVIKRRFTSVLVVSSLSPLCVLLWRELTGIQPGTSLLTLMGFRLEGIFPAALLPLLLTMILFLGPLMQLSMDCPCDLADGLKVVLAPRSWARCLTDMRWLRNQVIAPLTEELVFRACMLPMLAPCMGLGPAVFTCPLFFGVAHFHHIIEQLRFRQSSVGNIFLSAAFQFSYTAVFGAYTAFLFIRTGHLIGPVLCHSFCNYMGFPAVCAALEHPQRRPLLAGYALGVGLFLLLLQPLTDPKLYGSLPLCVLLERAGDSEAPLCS

CCOc1ccc2nc(NC(=O)CSc3cnn[nH]3)sc2c1
IC50 [1]: 32.8 µM (active) | IC50 [2]: 16.3 µM (active) | IC50 [3]: 44.1 µM (active) | IC50 [4]: 11.7 µM (active)

O=[N+]([O-])c1ccc(N2CCN(C(S)=NCc3ccc(Cl)cc3)CC2)cc1
IC50 [5]: 2.83 µM (active) | AC50 [6]: 6.14 µM (active) | IC50 [7]: 1.85 µM (active)

CCOc1cc(C=C2C(=O)NC(=O)NC2=O)cc([N+](=O)[O-])c1O
AC50 [8]: 2.49 µM (active)

CCN(CC)N=Nc1cccc(NC(C)=O)c1
IC50 [9]: > 67.5 µM (inactive) | IC50 [10]: > 67.5 µM (inactive)

O=C(O)c1ccc(N/N=C/c2ccc(-c3ccccc3Cl)o2)cc1
AC50 [11]: 54.5 µM (active)
